The source of these data is US20230365541A1, “INHIBITOR OF ENHANCER OF ZESTE HOMOLOGUE 2, AND USE THEREOF” (HAISCO PHARMACEUTICALS PTE. LTD., priority 2020, published 2023).

The target in one test is EZH2 (Homo sapiens (Human), UniProt Q15910). In words: Test method for EZH2 enzyme activity. Format: biochemical. The note with it: H3K27(21-44) and [3H]-SAM. Summed up:
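EZH2 (3 nM final) preincubated 15 min with compound in Tris-HCl pH 9.0 buffer, then H3K27(21-44) peptide and [3H]-SAM added (mixture at 200 nM and 100 nM) for 60 min at room temperature. Reaction quenched with cold SAM; flashplate scintillation read, inhibition normalized to controls and IC50 fitted.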

The test system of another test is SU-DHL-6 cells. Briefly: SU-DHL-6 cell proliferation test. Format: cell-based, human. The note with it: incubated for 14 days. The method, then:
SU-DHL-6 cells are human B-cell lymphoma cell lines purchased from ATCC and cultured under the following conditions: RPMI-1640+10% FBS+1% double antibody in a 37° C., 5% CO2 incubator. The cells were plated in a 12-well plate, with a cell concentration of 1×10^5 cells/mL. After the cells were plated, the compounds at different concentrations were added and cultured in a 37° C., 5% CO2 incubator. The cells were counted every 3-4 days (Countstar automated cell counter), centrifuged to remove the supernatant, re-diluted to 1×10^5 cells/mL and plated, and then the compounds at different concentrations were further added. After the mixture was incubated for 14 days and the cells were counted, the test was terminated, and the IC50 values were calculated by using the Origen9.2 software.

Chain of EZH2 (Q15910 other isoform, or with tags, fused parts or gaps isoform Q15910-2): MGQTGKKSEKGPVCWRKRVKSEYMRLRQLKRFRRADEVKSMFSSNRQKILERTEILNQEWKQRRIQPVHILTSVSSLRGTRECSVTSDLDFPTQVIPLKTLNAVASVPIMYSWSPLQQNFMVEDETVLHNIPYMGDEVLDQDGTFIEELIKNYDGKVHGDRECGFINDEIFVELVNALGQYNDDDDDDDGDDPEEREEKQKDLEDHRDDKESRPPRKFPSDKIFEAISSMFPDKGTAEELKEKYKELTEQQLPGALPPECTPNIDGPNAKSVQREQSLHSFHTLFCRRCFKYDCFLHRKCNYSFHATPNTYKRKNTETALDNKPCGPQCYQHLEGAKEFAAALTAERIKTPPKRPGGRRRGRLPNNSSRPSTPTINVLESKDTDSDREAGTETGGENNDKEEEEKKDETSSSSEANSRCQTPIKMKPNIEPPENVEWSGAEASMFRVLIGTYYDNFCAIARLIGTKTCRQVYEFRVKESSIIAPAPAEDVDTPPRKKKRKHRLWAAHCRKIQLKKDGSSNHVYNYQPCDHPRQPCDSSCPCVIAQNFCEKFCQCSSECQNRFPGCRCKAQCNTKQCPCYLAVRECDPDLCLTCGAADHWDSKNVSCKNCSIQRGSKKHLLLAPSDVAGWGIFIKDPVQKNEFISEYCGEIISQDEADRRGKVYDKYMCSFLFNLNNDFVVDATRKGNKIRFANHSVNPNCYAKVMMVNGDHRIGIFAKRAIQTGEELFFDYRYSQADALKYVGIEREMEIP
Chain of EZH2 (O75530 2-441 partner): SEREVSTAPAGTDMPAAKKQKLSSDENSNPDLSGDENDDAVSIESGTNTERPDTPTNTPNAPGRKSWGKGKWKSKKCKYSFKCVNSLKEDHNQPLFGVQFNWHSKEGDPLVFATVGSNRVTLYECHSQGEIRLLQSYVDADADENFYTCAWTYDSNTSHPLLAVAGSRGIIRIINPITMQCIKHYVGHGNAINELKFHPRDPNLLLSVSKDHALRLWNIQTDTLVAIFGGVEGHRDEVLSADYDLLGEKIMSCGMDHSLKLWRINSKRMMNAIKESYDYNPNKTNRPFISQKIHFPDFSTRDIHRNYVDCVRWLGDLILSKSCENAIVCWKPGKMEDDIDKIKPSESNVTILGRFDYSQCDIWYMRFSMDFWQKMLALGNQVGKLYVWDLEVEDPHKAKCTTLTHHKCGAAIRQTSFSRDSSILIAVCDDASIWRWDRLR
Chain of EZH2 (Q15022 2-739 partner): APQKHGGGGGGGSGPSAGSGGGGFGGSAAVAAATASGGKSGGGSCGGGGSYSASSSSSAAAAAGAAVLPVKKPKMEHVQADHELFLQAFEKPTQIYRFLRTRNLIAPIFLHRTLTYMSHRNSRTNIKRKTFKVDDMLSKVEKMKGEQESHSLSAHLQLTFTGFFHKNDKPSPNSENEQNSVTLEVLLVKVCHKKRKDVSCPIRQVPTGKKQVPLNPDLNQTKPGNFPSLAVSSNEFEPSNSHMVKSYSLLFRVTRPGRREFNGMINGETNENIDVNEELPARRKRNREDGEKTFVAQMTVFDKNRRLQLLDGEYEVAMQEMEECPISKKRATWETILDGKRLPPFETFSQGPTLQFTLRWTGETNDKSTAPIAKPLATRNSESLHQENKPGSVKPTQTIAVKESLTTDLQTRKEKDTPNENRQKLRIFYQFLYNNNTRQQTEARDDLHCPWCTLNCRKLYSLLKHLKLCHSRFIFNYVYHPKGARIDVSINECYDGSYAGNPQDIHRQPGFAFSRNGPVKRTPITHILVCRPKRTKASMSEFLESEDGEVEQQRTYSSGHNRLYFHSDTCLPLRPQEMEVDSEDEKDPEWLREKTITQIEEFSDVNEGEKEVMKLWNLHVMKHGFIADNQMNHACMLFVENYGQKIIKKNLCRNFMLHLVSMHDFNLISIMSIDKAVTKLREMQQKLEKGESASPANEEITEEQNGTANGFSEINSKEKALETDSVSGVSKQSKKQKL
Chain of EZH2 (Q09028 2-425 partner): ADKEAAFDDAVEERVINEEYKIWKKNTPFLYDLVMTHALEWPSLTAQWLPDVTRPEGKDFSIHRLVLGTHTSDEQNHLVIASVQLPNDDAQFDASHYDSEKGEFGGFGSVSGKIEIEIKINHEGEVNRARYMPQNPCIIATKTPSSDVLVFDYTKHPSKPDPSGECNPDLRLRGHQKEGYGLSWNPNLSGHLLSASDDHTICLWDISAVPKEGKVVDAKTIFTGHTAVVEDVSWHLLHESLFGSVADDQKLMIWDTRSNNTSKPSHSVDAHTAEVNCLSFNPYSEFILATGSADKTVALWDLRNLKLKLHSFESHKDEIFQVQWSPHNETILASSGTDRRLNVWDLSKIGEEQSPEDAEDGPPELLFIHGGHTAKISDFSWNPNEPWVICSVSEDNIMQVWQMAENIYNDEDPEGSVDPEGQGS
Chain of EZH2 (Q6ZN18 whole entry partner): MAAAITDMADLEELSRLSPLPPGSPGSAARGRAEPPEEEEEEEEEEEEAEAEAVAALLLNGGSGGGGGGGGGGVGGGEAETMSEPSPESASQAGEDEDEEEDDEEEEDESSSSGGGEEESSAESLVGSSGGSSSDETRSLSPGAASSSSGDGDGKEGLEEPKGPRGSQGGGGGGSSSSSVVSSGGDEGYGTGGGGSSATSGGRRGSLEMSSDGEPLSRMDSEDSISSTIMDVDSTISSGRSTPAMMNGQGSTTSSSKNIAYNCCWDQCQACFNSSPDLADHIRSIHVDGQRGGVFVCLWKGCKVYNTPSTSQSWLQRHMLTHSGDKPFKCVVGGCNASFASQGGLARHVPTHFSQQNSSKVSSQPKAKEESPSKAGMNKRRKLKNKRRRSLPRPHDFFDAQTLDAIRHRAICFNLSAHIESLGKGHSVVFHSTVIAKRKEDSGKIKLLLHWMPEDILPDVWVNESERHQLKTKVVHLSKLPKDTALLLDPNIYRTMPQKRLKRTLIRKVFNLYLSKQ

The term IC50 denotes the concentration that inhibits the measured activity by half. The low end stands for higher potency, the high end for lower potency. For the compound `CSc1cc(C)[nH]c(=O)c1CNC(=O)c1cc(Cl)c2c(c1C)OC(C)(C1CCN(CC3CCC3)CC1)O2` (stereo not drawn) [Compound 37, 7-chloro-2-(1-(cyclobutylmethyl)piperidin-4-yl)-2,4-dimethyl-N-((6-methyl-4-(methylthio)-2-oxo-1,2-dihydropyridin-3-yl)methyl)benzo[d][1,3]dioxole-5-carboxamide], the IC50 against EZH2 worked out at 0.44 nM; with SU-DHL-6 cells (Homo sapiens, SU-DHL-6, 336 h), 32.1 nM.

As to `[2H]C([2H])(NC(=O)c1cc(Cl)c2c(c1C)OC(C)(C1CCC(NC3COC3)CC1)O2)c1c(SC)cc(C)[nH]c1=O` (single isomer, unassigned) [Compound 59, isomer 1, 7-chloro-2,4-dimethyl-N-((6-methyl-4-(methylthio)-2-oxo-1,2-dihydropyridin-3-yl)methyl-d2)-2-(4-(oxetan-3-ylamino)cyclohexyl)benzo[d][1,3]dioxole-5-carboxamide], the 50% inhibitory concentration (IC50) is 0.57 nM against EZH2 and 10 nM in the test on SU-DHL-6 cells (Homo sapiens, SU-DHL-6, 336 h).

`CSc1cc(C)[nH]c(=O)c1CNC(=O)c1cc(Cl)c2c(c1C)OC(C)([C@H]1CC[C@@H](N[C@H]3C[C@H](F)C3)CC1)O2` (single isomer, unassigned) [Compound 34, isomer 2, 7-chloro-2-(4-((trans-3-fluorocyclobutyl)amino)cyclohexyl)-2,4-dimethyl-N-((6-methyl-4-(methylthio)-2-oxo-1,2-dihydropyridin-3-yl)methyl)benzo[d][1,3]dioxole-5-carboxamide]: the 50% inhibitory concentration (IC50) was 0.57 nM against EZH2 and 27.1 nM in the test with SU-DHL-6 cells.

Consider `CNS(=O)(=O)N1CCC(C2(C)Oc3c(Cl)cc(C(=O)NCc4c(SC)cc(C)[nH]c4=O)c(C)c3O2)CC1` (stereo not drawn) [Compound 26, 7-chloro-2,4-dimethyl-N-((6-methyl-4-(methylthio)-2-oxo-1,2-dihydropyridin-3-yl)methyl)-2-(1-(N-methylsulfamoyl)piperidin-4-yl)benzo[d][1,3]dioxole-5-carboxamide], for which the IC50 against EZH2 was determined as 0.52 nM; with SU-DHL-6 cells (Homo sapiens, SU-DHL-6, 336 h), 63.2 nM.

Consider `[2H]C([2H])(NC(=O)c1cc(Cl)c2c(c1C)OC(C)([C@H]1CC[C@@H](N3CC4COCC4C3)CC1)O2)c1c(SC)cc(C)[nH]c1=O` (single isomer, unassigned) [Compound 60, isomer 2, 7-chloro-2,4-dimethyl-N-((6-methyl-4-(methylthio)-2-oxo-1,2-dihydropyridin-3-yl)methyl-d2)-2-(4-(tetrahydro-1H-furo[3,4-c]pyrrol-5(3H)-yl)cyclohexyl)benzo[d][1,3]dioxole-5-carboxamide], for which the IC50 on EZH2 stood at 0.34 nM; in the test on SU-DHL-6 cells, 7.12 nM.

As to `CSc1cc(C)[nH]c(=O)c1CNC(=O)c1cc(Cl)c2c(c1C)OC(C)([C@H]1CC[C@@H](N3CC[Si](C)(C)CC3)CC1)O2` (single isomer, unassigned) [Compound 49, isomer 2, 7-chloro-2-(4-(4,4-dimethyl-1,4-azasilinan-1-yl)cyclohexyl)-2,4-dimethyl-N-((6-methyl-4-(methylthio)-2-oxo-1,2-dihydropyridin-3-yl)methyl)benzo[d][1,3]dioxole-5-carboxamide], the IC50 came out at 0.32 nM against EZH2 and 38.9 nM with SU-DHL-6 cells (Homo sapiens, SU-DHL-6, 336 h).

Regarding `CSc1cc(C)[nH]c(=O)c1CNC(=O)c1cc(Cl)c2c(c1C)OC(C)(C1CCC(N3CC(N(C)C)C3)CC1)O2` (single isomer, unassigned) [Compound 1, isomer 1, 7-chloro-2-(4-(3-(dimethylamino)azetidin-1-yl)cyclohexyl)-2,4-dimethyl-N-((6-methyl-4-(methylthio)-2-oxo-1,2-dihydropyridin-3-yl)methyl)benzo[d][1,3]dioxole-5-carboxamide], the half-maximal inhibitory concentration (IC50) against EZH2 came to 0.67 nM; with SU-DHL-6 cells (Homo sapiens, SU-DHL-6, 336 h) it was 13.1 nM.

In the case of `CNC(=O)N1CC2CCC(C1)C2[C@]1(C)Oc2c(Cl)cc(C(=O)NCc3c(SC)cc(C)[nH]c3=O)c(C)c2O1` (mixture of isomers) [Compound 36, 8-(7-chloro-2,4-dimethyl-5-(((6-methyl-4-(methylthio)-2-oxo-1,2-dihydropyridin-3-yl)methyl)carbamoyl)benzo[d][1,3]dioxol-2-yl)-N-methyl-3-azabicyclo[3.2.1]octane-3-carboxamide], the IC50 at EZH2 amounted to 0.55 nM; in the test on SU-DHL-6 cells (Homo sapiens, SU-DHL-6, 336 h), 8.96 nM.

Turning to `CSc1cc(C)[nH]c(=O)c1CNC(=O)c1cc(Cl)c2c(c1C)OC(C)(C1CCN(CC3COC3)CC1)O2` (stereo not drawn) [Compound 38, 7-chloro-2,4-dimethyl-N-((6-methyl-4-(methylthio)-2-oxo-1,2-dihydropyridin-3-yl)methyl)-2-(1-(oxetan-3-ylmethyl)piperidin-4-yl)benzo[d][1,3]dioxole-5-carboxamide], the IC50 was determined as 0.7 nM at EZH2 and 14.1 nM with SU-DHL-6 cells (Homo sapiens, SU-DHL-6, 336 h).

Regarding `CSc1cc(C)[nH]c(=O)c1CNC(=O)c1cc(Cl)c2c(c1C)OC(C)(C1CCN(CC3(C#N)CC3)CC1)O2` (stereo not drawn) [Compound 30, 7-chloro-2-(1-((1-cyanocyclopropyl)methyl)piperidin-4-yl)-2,4-dimethyl-N-((6-methyl-4-(methylthio)-2-oxo-1,2-dihydropyridin-3-yl)methyl)benzo[d][1,3]dioxole-5-carboxamide], the IC50 at EZH2 is 0.66 nM; in the test on SU-DHL-6 cells (Homo sapiens, SU-DHL-6, 336 h), 22.6 nM.

Turning to `COC(=O)N1CCC(C2(C)Oc3c(Cl)cc(C(=O)NCc4c(SC)cc(C)[nH]c4=O)c(C)c3O2)CC1` (stereo not drawn) [Compound 29, methyl-4-(7-chloro-2,4-dimethyl-5-(((6-methyl-4-(methylthio)-2-oxo-1,2-dihydropyridin-3-yl)methyl)carbamoyl)benzo[d][1,3]dioxol-2-yl)piperidine-1-carboxylate], the 50% inhibitory concentration (IC50) against EZH2 stood at 0.44 nM; in the test with SU-DHL-6 cells (Homo sapiens, SU-DHL-6, 336 h), 77.9 nM.

Regarding `CSc1cc(C)[nH]c(=O)c1CNC(=O)c1cc(Cl)c2c(c1C)OC(C)([C@H]1CC[C@H](N[C@H]3C[C@@H](F)C3)CC1)O2` (single isomer, unassigned) [Compound 41, isomer 1, 7-chloro-2-(4-((cis-3-fluorocyclobutyl)amino)cyclohexyl)-2,4-dimethyl-N-((6-methyl-4-(methylthio)-2-oxo-1,2-dihydropyridin-3-yl)methyl)benzo[d][1,3]dioxole-5-carboxamide], the IC50 came to 0.52 nM at EZH2 and 35.3 nM in the test on SU-DHL-6 cells (Homo sapiens, SU-DHL-6, 336 h).

Take `CSc1cc(C)[nH]c(=O)c1CNC(=O)c1cc(Cl)c2c(c1C)OC(C)([C@H]1CC[C@@H](NC3CC(F)(F)C3)CC1)O2` (single isomer, unassigned) [Compound 4, isomer 1, 7-chloro-2-(4-((3,3-difluorocyclobutyl)amino)cyclohexyl)-2,4-dimethyl-N-((6-methyl-4-(methylthio)-2-oxo-1,2-dihydropyridin-3-yl)methyl)benzo[d][1,3]dioxole-5-carboxamide]: the IC50 turned out to be 0.46 nM on EZH2 and 10.2 nM in the test with SU-DHL-6 cells (Homo sapiens, SU-DHL-6, 336 h).

Take `CSc1cc(C)[nH]c(=O)c1CNC(=O)c1cc(Cl)c2c(c1C)OC(C)([C@H]1CC[C@@H](c3ccccn3)CC1)O2` (single isomer, unassigned) [Compound 39, isomer 2, 7-chloro-2,4-dimethyl-N-((6-methyl-4-(methylthio)-2-oxo-1,2-dihydropyridin-3-yl)methyl)-2-(4-(pyridin-2-yl)cyclohexyl)benzo[d][1,3]dioxole-5-carboxamide]: the half-maximal inhibitory concentration (IC50) against EZH2 was determined as 0.58 nM; with SU-DHL-6 cells, 63.2 nM.

As for `CSc1cc(C)[nH]c(=O)c1CNC(=O)c1cc(Cl)c2c(c1C)OC(C)([C@H]1CC[C@H](C(=O)N3CC(F)(F)C3)CC1)O2` (single isomer, unassigned; isomer 1) [Compound 47, isomer 1, 7-chloro-2-(4-(3,3-difluoroazetidine-1-carbonyl)cyclohexyl)-2,4-dimethyl-N-(di-deuterated(6-methyl-4-(methylthio)-2-oxo-1,2-dihydropyridin-3-yl)di-deuterated-methyl)benzo[d][1,3]dioxole-5-carboxamide], the concentration for half-maximal inhibition (IC50) came to 0.34 nM against EZH2 and 26.3 nM in the test on SU-DHL-6 cells.
